System: ddY mice
Conditions: mouse, in vivo, ip

Compound: C=C(C[C@@H]1C[C@H](O)[C@]2(C)O[C@@H]3C[C@@H]4O[C@@H]5C[C@]6(C)O[C@]7(C)CC[C@@H]8O[C@@H]9C[C@]%10(C)O[C@@H]%11C(C)=CC(=O)O[C@H]%11C[C@H]%10O[C@H]9C[C@@H](C)[C@H]8O[C@H]7C[C@H]6O[C@@]5(C)C/C=C\[C@H]4O[C@H]3C[C@H]2O1)C(=O)O [BTX-B5, brevetoxin B5]
- symptoms after injection: symptoms of neurotoxicity extremely similar to those caused by other brevetoxins
